The source of these data is patent US12091387B2, “Quinoline cGAS antagonist compounds” (IMMUNESENSOR THERAPEUTICS, INC., priority 2022, dated 2024).

Molecules are shown by their SMILES.

For experiment [1], the system named is cGAS activity in reporter THP1 cell line. Description: Cellular assay to measure cGAS activity (ISRE-Gaussia luciferase reporter THP1 cells, ISD transfection). It counts as cell-based. The settings on record: Homo sapiens, THP-1, 2 μg/mL ISD transfection, 16 hours, luciferase luminescence. How it is done:
Cellular assay to measure cGAS activity: Reporter THP1 cell line harboring a gene encoding Gaussia Luciferase under the control of 5 tandem repeats of interferon-stimulated response elements (ISRE) fused to an ISG54 minimal promoter was used to test inhibition of cGAS activity by synthetic compounds in human cells. These cells were plated on 96-well plates at 0.3×10^6/well and incubated with serial dilutions of compounds or DMSO for 5 min, followed by transfection of 2 μg/mL of ISD (Interferon Stimulatory DNA, a 45 bp DNA oligo) or mock transfected using lipofectamine 2000 (Life Technology) method, according to manufacturer's instructions. 16 hours later, 15 μL of the media from each well was transferred to a new plate, 50 μL of solution containing 50 mM Hepes-NaOH, pH 6.5, 50 mM NaCl, 10 mM EDTA, 1 μM of coeleanterazine is added to each well and luminescence is measured immediately. Fold increase in luminescence compared to mock transfection was plotted against concentrations of each compound, and IC50 is calculated using Graphpad. To evaluate the specificity of a compound, the same procedure is performed except that cells are transfected with 2 μg/mL […] or infected with Sendai Virus (SeV) at 50 Unit/mL, which are known to activate the RIG-I-MAVS pathway. A specific inhibitory compound should inhibit interferon induction by DNA but have minimal effect on poly(I:C) or Sendai virus induced interferon reporter gene expression.
The letter codes for cGAS IC50 include: A (<2 μM); B (2-10 μM); C (>10 μM).
On the technique in general: In a reporter assay the amount or activity of a reporter protein is the signal.

Experiment [2] addresses T1, recombinant human cGAS (aa147-522) (Homo sapiens, UniProt Q8N884).
T1 construct: recombinant human cGAS (aa147-522); His6-SUMO (N, cleaved yes); made in house; host or cells: E. coli BL21/pLys
Description: In vitro inhibition assay of cGAS activity (KinaseGlo, ATP consumption). It counts as biochemical. The conditions noted are these: Herring testis DNA, 6.6 μM ATP, 0.1 mM GTP, 37° C. 20 minutes. How it is done: Expression and Purification of Recombinant cGAS Protein: cDNA encoding full-length or amino acids 147-520 of human cGAS was inserted into a modified pET28a vector containing an in-frame His6-SUMO tag. The E. coli strain BL21/pLys harboring the plasmid was induced with 0.5 mM IPTG at 18° C. overnight. His6-SUMO tag was removed by a SUMO protease digestion following purification of the His6-SUMO-cGAS as described previously (Sun et al, 2013, Science 339, 786).
In vitro inhibition assay of cGAS activity: A 60 μL mixture containing 20 mM Tris-Cl, pH 7.5, 5 mM MgCl2, 0.2 mg/mL BSA, 0.01 mg/mL Herring testis DNA, 6.6 μM ATP, 0.1 mM GTP, 1.5 μg/mL of recombinant human cGAS (aa147-522) and serial dilutions of a test compound in DMSO is added to a 96-well plate and incubated at 37° C. for 20 minutes. At the end of reaction, 40 μL of KinaseGlo Max (Promega) is added and chemiluminescence was measured with a luminometer. Inhibitory effect of a compound is evaluated by plotting percentage of ATP consumption against logarithm of compound concentrations. IC50 value is calculated using GraphPad Prism 8 (GraphPad Software, Inc.).
The letter codes for cGAS IC50 include: A (<2 μM); B (2-30 μM); C (>30 μM).
Background: In Kinase-Glo more light means more ATP remaining.

T1 sequence (Q8N884 147-522): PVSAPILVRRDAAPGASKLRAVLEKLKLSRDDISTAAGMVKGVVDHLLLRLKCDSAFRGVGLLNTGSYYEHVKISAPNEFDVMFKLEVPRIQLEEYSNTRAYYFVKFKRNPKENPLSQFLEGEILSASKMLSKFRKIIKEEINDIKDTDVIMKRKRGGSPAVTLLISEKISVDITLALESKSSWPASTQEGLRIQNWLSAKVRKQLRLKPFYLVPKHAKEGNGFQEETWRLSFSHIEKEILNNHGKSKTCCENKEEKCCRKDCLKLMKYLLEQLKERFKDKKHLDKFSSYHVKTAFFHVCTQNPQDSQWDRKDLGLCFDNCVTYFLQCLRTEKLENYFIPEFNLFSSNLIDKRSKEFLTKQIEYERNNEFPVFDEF

As for `O=C(O)CCOC[C@@H]1CCCN1c1cc(-c2ncn[nH]2)c2ccc(Br)cc2n1` [I-901, (S)-3-((1-(7-bromo-4-(4H-1,2,4-triazol-3-yl)quinolin-2-yl)pyrrolidin-2-yl)methoxy)propanoic acid], the IC50 was over 10000 nM in experiment [1] and 2000 to 30000 nM in experiment [2].

As to `O=C(O)CCOC[C@@H]1C[C@@H]2C[C@@H]2N1c1cc(-n2cncn2)c2cc(Br)c(Cl)c(Cl)c2n1` [I-930], the IC50 in experiment [1] and in experiment [2] was under 2000 nM throughout.

On to `O=C(O)CCOC[C@@H]1CCCN1c1cc(-c2cccc(CO)c2)c2ccc(Cl)c(Cl)c2n1` [I-909], for which the figures for the half-maximal inhibitory concentration (IC50) in experiment [1] and in experiment [2] were over 10000 nM and over 30000 nM, respectively.

Take `O=C(O)CCOC[C@@H]1CCCN1c1cc(N2CCNCC2)c2ccc(Cl)c(Cl)c2n1` [I-920]: the IC50 in experiment [1] was over 10000 nM; in experiment [2], over 30000 nM.

With `O=C(O)CCOC[C@@H]1CC2(CC2)CN1c1cc(-n2cncn2)c2cc(Cl)c(Br)cc2n1` [I-896], the IC50 in experiment [1] and in experiment [2] was under 2000 nM throughout.

`O=C(O)CCOC[C@@H]1CCCN1c1cc(-c2cnsc2)c2ccc(Cl)c(Cl)c2n1` [I-906]: the IC50 in experiment [1] and in experiment [2] was under 2000 nM in each case.

Turning to `O=C(O)CCOC[C@@H]1CCCN1c1cc(-c2cccc(O)c2)c2ccc(Cl)c(Cl)c2n1` [I-910], the IC50 was over 10000 nM in experiment [1] and over 30000 nM in experiment [2].

On to `O=C(O)CCOC[C@@H]1CCCN1c1cc(-c2cscn2)c2ccc(Cl)c(Cl)c2n1` [I-908], for which the IC50 in experiment [1] was over 10000 nM; in experiment [2], over 30000 nM.

`O=C(O)CCOC[C@@H]1CCCN1c1cc(-c2cnn[nH]2)c2ccc(Cl)c(Cl)c2n1` [I-899, (S)-3-((1-(7,8-dichloro-4-(1H-1,2,3-triazol-4-yl)quinolin-2-yl)pyrrolidin-2-yl)methoxy)propanoic acid]: the IC50 in experiment [1] and in experiment [2] was under 2000 nM throughout.

Turning to `O=C(O)CCOC[C@@H]1CCCN1c1cc(-n2ccnn2)c2ccc(Cl)c(Cl)c2n1` [I-900, (S)-3-((1-(7,8-dichloro-4-(1H-1,2,3-triazol-1-yl)quinolin-2-yl)pyrrolidin-2-yl)methoxy)propanoic acid], the IC50 in experiment [1] and in experiment [2] was under 2000 nM in each case.

Regarding `O=C(O)CCOC[C@@H]1CCCN1c1cc(N2CCOCC2)c2ccc(Cl)c(Cl)c2n1` [I-919], the IC50 was over 10000 nM in experiment [1] and over 30000 nM in experiment [2].

Turning to `O=C(O)CCOC[C@@H]1CCCN1c1cc(-n2cncn2)c2ccc(Cl)c(Cl)c2n1` [I-892], the IC50 in experiment [1] and in experiment [2] was under 2000 nM each time.

With `COc1cccc(-c2cc(N3CCC[C@H]3COCCC(=O)O)nc3c(Cl)c(Cl)ccc23)c1` [I-912], the IC50 was over 10000 nM in experiment [1] and over 30000 nM in experiment [2].

As to `O=C(O)CCOC[C@@H]1CCN(c2cc(-n3cncn3)c3cc(Br)c(Cl)c(Cl)c3n2)C1` [I-937], the IC50 in experiment [1] and in experiment [2] was under 2000 nM in each case.

For `O=C(O)CCOC[C@@H]1CCCN1c1cc(-c2cccc(F)c2)c2ccc(Cl)c(Cl)c2n1` [I-914], the IC50 in experiment [1] is over 10000 nM; in experiment [2], 2000 to 30000 nM.

On to `O=C(O)CCOC[C@@H]1CCCN1c1cc(-c2ccc(F)cc2)c2ccc(Cl)c(Cl)c2n1` [I-913], for which the IC50 in experiment [1] is over 10000 nM; in experiment [2] it was over 30000 nM.

For the compound `O=C(O)CCOC[C@@H]1CCCN1c1cc(-c2ccsc2)c2ccc(Cl)c(Cl)c2n1` [I-905], the IC50 in experiment [1] was over 10000 nM; in experiment [2] it was over 30000 nM.

As to `COC(=O)[C@@H]1[C@@H](O)CCN1c1cc(-n2cncn2)c2cc(Br)c(Cl)c(Cl)c2n1` [I-933], the IC50 in experiment [1] and in experiment [2] was under 2000 nM in each case.

As to `O=C(O)CCOC[C@@H]1CCCN1c1cc(-c2cocn2)c2ccc(Cl)c(Cl)c2n1` [I-904], the figures for the concentration for half-maximal inhibition (IC50) in experiment [1] and in experiment [2] were over 10000 nM and over 30000 nM, respectively.

Regarding `O=C(O)CCOC[C@@H]1CCCN1c1cc(-c2cnoc2)c2ccc(Cl)c(Cl)c2n1` [I-902], the IC50 in experiment [1] was 2000 to 10000 nM; in experiment [2] it was under 2000 nM.

Take `O=C(O)CCOC[C@@H]1CC2(CC2)CN1c1cc(-n2cncn2)c2cc(Br)c(Cl)c(Cl)c2n1` [I-897]: the IC50 in experiment [1] and in experiment [2] was under 2000 nM each time.

For `O=C(O)CCOC[C@@H]1CCCN1c1cc(-n2cncn2)c2cc(Cl)c(Br)cc2n1` [I-893], the IC50 in experiment [1] and in experiment [2] was under 2000 nM in each case.

`O=C(O)CCOC[C@H]1CCCN1c1cc(-n2cncn2)c2cc(Br)c(Cl)c(Cl)c2n1` [I-925]: the IC50 in experiment [1] and in experiment [2] was under 2000 nM each time.

As for `O=C(O)CCOC[C@@H]1CCCN1c1cc(-c2cncs2)c2ccc(Cl)c(Cl)c2n1` [I-907], the IC50 in experiment [1] and in experiment [2] was under 2000 nM each time.

On to `O=C(O)CCOC[C@H]1CC2(CC2)CN1c1cc(-n2cncn2)c2cc(Br)c(Cl)c(Cl)c2n1` [I-926], for which the IC50 in experiment [1] and in experiment [2] was under 2000 nM in each case.

As to `O=C(O)CCOC[C@@H]1C[C@@H]2C[C@@H]2N1c1cc(-n2cncn2)c2cc(Cl)c(Br)cc2n1` [I-927], the IC50 in experiment [1] and in experiment [2] was under 2000 nM in each case.

Take `O=C(O)CCOC[C@@H]1CCCN1c1cc(-c2cccnc2)c2ccc(Cl)c(Cl)c2n1` [I-915]: the half-inhibitory concentration (IC50) was over 10000 nM in experiment [1] and over 30000 nM in experiment [2].

Turning to `CN1CCN(c2cc(N3CCC[C@H]3COCCC(=O)O)nc3c(Cl)c(Cl)ccc23)CC1` [I-921], the 50% inhibitory concentration (IC50) in experiment [1] is over 10000 nM; in experiment [2], over 30000 nM.

For the compound `O=C(O)CCOC[C@@H]1C[C@H](C(F)(F)F)CN1c1cc(-n2cncn2)c2cc(Cl)c(Br)cc2n1` [I-929], the IC50 in experiment [1] and in experiment [2] was under 2000 nM in each case.

In the case of `O=C(O)CCOC[C@@H]1CCCN1c1cc(C2=CCNC2)c2ccc(Cl)c(Cl)c2n1` [I-922], the IC50 was over 10000 nM in experiment [1] and over 30000 nM in experiment [2].

Regarding `O=C(O)CCOC[C@@H]1CCCN1c1cc(C2=CNCC2)c2ccc(Cl)c(Cl)c2n1` [I-923], the IC50 is over 10000 nM in experiment [1] and 2000 to 30000 nM in experiment [2].

Regarding `C[C@H]1C[C@@H](COCCC(=O)O)N(c2cc(-n3cncn3)c3cc(Cl)c(Br)cc3n2)C1` [I-928], the IC50 in experiment [1] and in experiment [2] was under 2000 nM throughout.

For the compound `COC(=O)[C@@H]1[C@@H](O)CCN1c1cc(-n2cncn2)c2cc(Cl)c(Br)cc2n1` [I-936], the IC50 in experiment [1] and in experiment [2] was under 2000 nM in each case.

On to `O=C(O)CCOC[C@@H]1CCCN1c1cc(-c2ccnnc2)c2ccc(Cl)c(Cl)c2n1` [I-918], for which the results for the IC50 in experiment [1] and in experiment [2] were over 10000 nM and over 30000 nM, respectively.

As for `Cc1c(Br)ccc2c(-n3cncn3)cc(N3CCC[C@H]3COCCC(=O)O)nc12` [I-894], the IC50 in experiment [1] and in experiment [2] was under 2000 nM in each case.

As to `O=C(O)CCOC[C@@H]1CCN(c2cc(-n3cncn3)c3cc(Cl)c(Br)cc3n2)C1` [I-935], the IC50 in experiment [1] and in experiment [2] was under 2000 nM each time.

`O=C(O)CCOC[C@@H]1CCCN1c1cc(-c2cncnc2)c2ccc(Cl)c(Cl)c2n1` [I-917]: the IC50 in experiment [1] was over 10000 nM; in experiment [2], under 2000 nM.

Consider `CCN(CCOCCC(=O)O)c1cc(-n2cncn2)c2cc(Br)c(Cl)c(Cl)c2n1` [I-938], for which the IC50 in experiment [1] and in experiment [2] was under 2000 nM throughout.

As to `O=C(O)CCOC[C@@H]1CCCN1c1cc(-n2cncn2)c2cc(Cl)c(Cl)cc2n1` [I-931], the IC50 in experiment [1] and in experiment [2] was under 2000 nM each time.

Turning to `COc1ccc(-c2cc(N3CCC[C@H]3COCCC(=O)O)nc3c(Cl)c(Cl)ccc23)cc1` [I-911], the IC50 in experiment [1] was over 10000 nM; in experiment [2], over 30000 nM.

Regarding `O=C(O)CCOC[C@@H]1CCCN1c1cc(-n2cncn2)c2cc(Br)c(Cl)c(Cl)c2n1` [I-895], the IC50 in experiment [1] and in experiment [2] was under 2000 nM each time.

As for `O=C(O)[C@@H]1[C@@H](O)CCN1c1cc(-n2cncn2)c2cc(Cl)c(Br)cc2n1` [I-934], the IC50 in experiment [1] is over 10000 nM; in experiment [2], under 2000 nM.

For orientation: IC50 means the concentration needed to halve the response being measured.
